Activity calls are given as the source filed them. No cut-off for these calls is given here.
Key:
[1] = Upregulation of BMP-2 expression in mouse MC3T3-E1 cells at 4 uM after 24 hrs by luciferase reporter gene assay relative to control; assay type: functional, cell-based
Rattus norvegicus [2] = test: Toxicity in glucocorticoid-induced Wistar rat osteoporosis model assessed as white blood cells at 30 mg/kg/day, po administered six times a week for 3 months (reference value: 6.28 +/- 2.78 x 10^9/L); assay type: organism-based; design: route oral; details: in vivo
Rattus norvegicus [3] = test: Toxicity in glucocorticoid-induced Wistar rat osteoporosis model assessed as lymph level at 30 mg/kg/day, po administered six times a week for 3 months (reference value: 50.35 +/- 12.96%); assay type: organism-based; design: route oral; details: in vivo
Rattus norvegicus [4] = test: Toxicity in glucocorticoid-induced Wistar rat osteoporosis model assessed as neutrophilic granulocytes level at 30 mg/kg/day, po administered six times a week for 3 months (reference value: 31.95 +/- 8.33%); assay type: organism-based; design: route oral; details: in vivo
Rattus norvegicus [5] = test: Toxicity in glucocorticoid-induced Wistar rat osteoporosis model assessed as effect on red blood cells at 30 mg/kg/day, po administered six times a week for 3 months; assay type: organism-based; design: route oral; details: in vivo
Rattus norvegicus [6] = test: Toxicity in glucocorticoid-induced Wistar rat osteoporosis model assessed as effect on hemoglobin at 30 mg/kg/day, po administered six times a week for 3 months; assay type: organism-based; design: route oral; details: in vivo
Rattus norvegicus [7] = test: Toxicity in glucocorticoid-induced Wistar rat osteoporosis model assessed as effect on red blood cell specific volume at 30 mg/kg/day, po administered six times a week for 3 months; assay type: organism-based; design: route oral; details: in vivo
Rattus norvegicus [8] = test: Toxicity in glucocorticoid-induced Wistar rat osteoporosis model assessed as effect on mean corpuscular volume at 30 mg/kg/day, po administered six times a week for 3 months; assay type: organism-based; design: route oral; details: in vivo
Rattus norvegicus [9] = test: Toxicity in glucocorticoid-induced Wistar rat osteoporosis model assessed as effect on mean corpuscular hemoglobin concentration at 30 mg/kg/day, po administered six times a week for 3 months; assay type: organism-based; design: route oral; details: in vivo
Rattus norvegicus [10] = test: Toxicity in glucocorticoid-induced Wistar rat osteoporosis model assessed as effect on red blood cell distribution width at 30 mg/kg/day, po administered six times a week for 3 months; assay type: organism-based; design: route oral; details: in vivo
Rattus norvegicus [11] = test: Toxicity in glucocorticoid-induced Wistar rat osteoporosis model assessed as effect on platelets at 30 mg/kg/day, po administered six times a week for 3 months; assay type: organism-based; design: route oral; details: in vivo
Rattus norvegicus [12] = test: Toxicity in glucocorticoid-induced Wistar rat osteoporosis model assessed as aspartate transaminase level at 30 mg/kg/day, po administered six times a week for 3 months (reference value: 177.55 +/- 116.98 U/L); assay type: organism-based; design: route oral; details: in vivo
Rattus norvegicus [13] = test: Toxicity in glucocorticoid-induced Wistar rat osteoporosis model assessed as alanine transaminase level at 30 mg/kg/day, po administered six times a week for 3 months (reference value: 43.73 +/- 36.21 U/L); assay type: organism-based; design: route oral; details: in vivo
Rattus norvegicus [14] = test: Toxicity in glucocorticoid-induced Wistar rat osteoporosis model assessed as triglycerides level at 30 mg/kg/day, po administered six times a week for 3 months (reference value: 1.13 +/- 0.69 mmol/L); assay type: organism-based; design: route oral; details: in vivo
Rattus norvegicus [15] = test: Toxicity in glucocorticoid-induced Wistar rat osteoporosis model assessed as effect on total bilirubin level at 30 mg/kg/day, po administered six times a week for 3 months; assay type: organism-based; design: route oral; details: in vivo
Rattus norvegicus [16] = test: Toxicity in glucocorticoid-induced Wistar rat osteoporosis model assessed as effect on total protein level at 30 mg/kg/day, po administered six times a week for 3 months; assay type: organism-based; design: route oral; details: in vivo
Rattus norvegicus [17] = test: Toxicity in glucocorticoid-induced Wistar rat osteoporosis model assessed as effect on albumin level at 30 mg/kg/day, po administered six times a week for 3 months; assay type: organism-based; design: route oral; details: in vivo
Rattus norvegicus [18] = test: Toxicity in glucocorticoid-induced Wistar rat osteoporosis model assessed as effect on blood urea nitrogen level at 30 mg/kg/day, po administered six times a week for 3 months; assay type: organism-based; design: route oral; details: in vivo
Rattus norvegicus [19] = test: Toxicity in glucocorticoid-induced Wistar rat osteoporosis model assessed as effect on creatinine level at 30 mg/kg/day, po administered six times a week for 3 months; assay type: organism-based; design: route oral; details: in vivo
Rattus norvegicus [20] = test: Toxicity in glucocorticoid-induced Wistar rat osteoporosis model assessed as effect on glucose level at 30 mg/kg/day, po administered six times a week for 3 months; assay type: organism-based; design: route oral; details: in vivo
[21] = Acute toxicity in po dosed Kunming mouse administered for 3 days measured during compound dosing and following 14 days; assay type: organism-based; details: in vivo
Rattus norvegicus [22] = test: Antiosteoporotic activity in glucocorticoid-induced Wistar rat osteoporosis model assessed as densed trabecula at 30 mg/kg/day, po administered six times a week for 3 months by toluidine blue staining-based light microscopic analysis relative to dexamethasone; assay type: functional, organism-based
Rattus norvegicus [23] = test: Antiosteoporotic activity in glucocorticoid-induced Wistar rat osteoporosis model assessed as trabecular bone volume at 30 mg/kg/day, po administered six times a week for 3 months by fluorescence assay (reference value: 33.09 +/- 5.15%); assay type: functional, Trabecula
Rattus norvegicus [24] = test: Antiosteoporotic activity in glucocorticoid-induced Wistar rat osteoporosis model assessed as trabecula formation surface at 30 mg/kg/day, po administered six times a week for 3 months by fluorescence assay (reference value: 7.82 +/- 2.46%); assay type: functional
Rattus norvegicus [25] = test: Antiosteoporotic activity in glucocorticoid-induced Wistar rat osteoporosis model assessed as trabecula resorption surface at 30 mg/kg/day, po administered six times a week for 3 months by fluorescence assay (reference value: 7.22 +/- 2.04%); assay type: functional
Rattus norvegicus [26] = test: Antiosteoporotic activity in glucocorticoid-induced Wistar rat osteoporosis model assessed as mineral apposition rate at 30 mg/kg/day, po administered six times a week for 3 months by fluorescence assay (reference value: 1.06 +/- 0.27 micrometer/day); assay type: functional
Mus musculus [27] = test: Acute toxicity in Kunming mouse assessed as behavioral changes at 500 mg/kg, po administered for 3 days measured during compound dosing and following 14 days; assay type: organism-based; design: dose 500 mg/kg, route oral; details: in vivo, 336 h
Mus musculus [28] = test: Acute toxicity in Kunming mouse assessed as shiny fur at 500 mg/kg, po administered for 3 days measured during compound dosing and following 14 days; assay type: organism-based; design: dose 500 mg/kg, route oral; details: in vivo, 336 h

Work on `CCOC(=O)c1ccc2cc(C(=O)/C=C/c3ccc(OC)c(OC)c3OC)sc2c1` yielded an Activity [1] of -13%.
In the case of `C[S+]([O-])CC(O)c1cc2cc3c(cc2s1)OCO3` (configuration not stated), the Activity [1] is reported as -9.3%.
`CCOC(=O)c1cc2cc(OC)ccc2o1` showed an Activity [1] of 64.1%.
For `C[S+]([O-])CC(O)c1cc2ccccc2s1` (configuration not stated), the Activity [1] was -3.6%.
For `COc1ccc2cc(C(=O)C[S+](C)[O-])oc2c1` (configuration not stated), the Activity [1] was 7.7%.
`CCOC(=O)c1ccc2cc(C(=O)/C=C/c3ccccc3Cl)sc2c1` showed an Activity [1] of 39.1%.
Work on `COc1ccc2oc(C(=O)CS(C)(=O)=O)cc2c1` yielded an Activity [1] of 12.9%.
Work on `CCOC(=O)c1cc2cc3c(cc2s1)OCO3` yielded an Activity (Rattus norvegicus [2]) of 3.27 ×10⁹ /L, an Activity (Rattus norvegicus [3]) of 46.29% and an Activity (Rattus norvegicus [4]) of 41.49%. For the same molecule, the Activity (Rattus norvegicus [5]) was “Non-toxic”, the Activity (Rattus norvegicus [6]) was “Non-toxic” and the Activity (Rattus norvegicus [7]) was “Non-toxic”. For the same molecule, the Activity (Rattus norvegicus [8]) was “Non-toxic”, the Activity (Rattus norvegicus [9]) was “Non-toxic” and the Activity (Rattus norvegicus [10]) was “Non-toxic”. The Activity (Rattus norvegicus [11]) was “Non-toxic”, the Activity (Rattus norvegicus [12]) was 114.82 U/L and the Activity (Rattus norvegicus [13]) was 28.27 U/L. The Activity (Rattus norvegicus [14]) was 0.34 mmol/L, the Activity (Rattus norvegicus [15]) was “Non-toxic” and the Activity (Rattus norvegicus [16]) was “Non-toxic”. The Activity (Rattus norvegicus [17]) was “Non-toxic”, the Activity (Rattus norvegicus [18]) was “Non-toxic” and the Activity (Rattus norvegicus [19]) was “Non-toxic”. For the same molecule, the Activity (Rattus norvegicus [20]) was “Non-toxic”, the LD50 at 336 h [21] was over 500 mg/kg and the Activity (Rattus norvegicus [22]) was “Active”. The Activity (Rattus norvegicus [23]) was 22.07%, the Activity (Rattus norvegicus [24]) was 5.72% and the Activity (Rattus norvegicus [25]) was 9.43%. The Activity (Rattus norvegicus [26]) was 0.95 micrometer/day, the Activity (Mus musculus [27]) was “Non-toxic” and the Activity (Mus musculus [28]) was “Non-toxic”.
`COc1ccc2oc(C(=O)C[S+](C)[O-])cc2c1` (configuration not stated) gave an Activity [1] of 2.1%.
For `COc1cccc2oc(C(=O)C[S+](C)[O-])cc12` (configuration not stated), the Activity [1] was 19.6%.
In the case of `CCOC(=O)c1ccc2cc(C(=O)/C=C/c3ccc(OC)cc3)sc2c1`, the Activity [1] is reported as 12.2%.

— ChEMBL document CHEMBL3414511, “Synthesis of a novel class of substituted benzothiophene or benzofuran derivatives as BMP-2 up-regulators and evaluation of the BMP-2-up-regulating effects in vitro and the effects on glucocorticoid-induced osteoporosis in rats” (Eur J Med Chem, 2015)
